From patent publication US20070072946A1 (priority 2005, published 2007)
Values joined by “and” are separate entries in the source; they are usually repeats but may differ in a detail not shown here. Identical values can stand only once. Counter-ions that a name gives are not always drawn.

Tests used:
[1] = system: subjects suffering from fibromyalgia syndrome; settings: cited from earlier work; for subjects with significant clinical improvement: after one month; for long-term efficacy: at six months, 19% improvement with placebo; for difference from placebo: at three months
[2] = system: patients who met the 1990 ACR criteria for fibromyalgia syndrome; test: Multi-center double-blind, randomized, placebo-controlled study of milnacipran for fibromyalgia (Example 1, FMS031); type: in vivo, human; settings: for m, number of responders: observed cases; for percentage of responders (greater than 30% reduction in pain from baseline and improvement on the PGIC): observed cases (OC), hydrochloride
Method: The primary outcome was a composite responder analysis assessing response rate at weeks 14 and 15, and the secondary analysis assessed response rate at weeks 26 and 27.
This was a multi-center, randomized, double-blinded, placebo-controlled three-arm study, which enrolled 888 patients who met the 1990 ACR criteria for fibromyalgia syndrome as well as the more detailed admission criteria outlined in the protocol.
Patients recorded baseline symptoms for the first two weeks after washing off anti-depressants, benzodiazepines, and certain other drugs that could potentially interfere with efficacy measurements.
All randomized medications (placebo and milnacipran) were administered in a split-dose (BID) fashion. The doses were administered in a dose escalation regimen as outlined below: • Step 1: 12.5 mg 1 day (12.5 mg pm) • Step 2: 25 mg 2 days (12.5 mg am, 12.5 mg pm) • Step 3: 50 mg 4 days (25 mg am, 25 mg pm) • Step 4: 100 mg 7 days (50 mg am, 50 mg pm) • Step 5: 200 mg 7 days (100 mg am, 100 mg pm).
Patients were required to complete electronic diary, as well as additional paper assessments as described in the schedule of study assessments.
In addition to the daily completion of a proprietary electronic patient diary, the following assessments were obtained:
a. Primary Variables: patient global impression of change (PGIC) and the Fibromyalgia Impact Questionnaire (FIQ);
d. FMS Status Assessments:, Patient pain 24 hour and 7 day recall VAS, the SF-36, Multiple Ability Self-report Questionnaire (MASQ, cognitive function), the Multidimensional Health Assessment Questionnaire (MDHAQ) and the Multi-dimensional Fatigue Inventory (MFI). Diary assessments include current pain (morning, random daily, and evening reports); daily recall pain (morning report); medications taken (evening report); overall pain past week (weekly report), overall fatigue in the last week (weekly report), and the extent that pain kept the patient from caring for themselves (weekly report).
The primary endpoint of this study was a composite responder analysis implementing analysis of three domains of interest, evaluated at […]. The domains measured were:
1) pain (measured by an electronic diary as a daily recall pain score, calculated to weekly average scores);
2) patient global (measured by the PGIC, 1-7 scale); and
3) physical function (measured by the FIQ-PF).
For the primary analysis, the pain domain score was determined by a calculation that compared the average of treatment weeks 14 and 15 to the two baseline weeks, and treatment weeks 26 and 27 vs. baseline for the secondary analysis. The last observation was carried forward if neither the week 14 nor week 15 (or week 26/27) patient self-reported pain score is available to compare to the baseline value.
A responder was defined as a subject who experienced a greater than 30% reduction in pain from baseline and improvement on the PGIC.
See Table 1 for a summary of the results in the Intent-to-Treat Population and Table 2 for a summary of the Last Observation Carried Forward (LOCF), Baseline Observation Carried Forward (BOCF) and study completer (OC) populations. LOCF is an analysis in which observations are carried forward to the last time point for patients who dropped out. The LOCF analysis treats the carried-forward data as observed data at the last time point. BOCF is an analysis that requires the patient remain active in the trial to be evaluated for response. If a patient withdraws from the trial for any reason they are classed as a non-responder irregardless of their pain and global scores at the time of withdrawal.

[3] = system: fibromyalgia patients; settings: cited from earlier work
[4] = system: patients with FMS; settings: cited from earlier work
[5] = both milnacipran treatment groups (BID and QD), up to 200 mg/day

## CN(C)CCC=C1c2ccccc2CCc2ccccc21 [amitriptyline]
[1]
  subjects with significant clinical improvement: 21%
  long-term efficacy: no long-term efficacy could be demonstrated
  difference from placebo: no difference between either treatment group and placebo

## CN(C)CCC=C1c2ccccc2C=Cc2ccccc21 [cyclobenzaprine]
[1]
  subjects with significant clinical improvement: 12%
  long-term efficacy: no long-term efficacy could be demonstrated
  difference from placebo: no difference between either treatment group and placebo

## CCN(CC)C(=O)C1(c2ccccc2)CC1CN (centres unmarked) [milnacipran, Z-2-aminomethyl-1-phenyl-N,N-diethylcyclopropanecarboxamide hydrochloride]
[2]; 100 mg/day vs 200 mg/day, long-term treatment
  efficacy of low dose compared with high dose: almost as effective as continued administration of high dose milnacipran
[2]; 100 mg, 3 month
  Individual Component Responder Rate, PGIC (LOCF): 54.0%
  Individual Component Responder Rate, Pain (LOCF): 35.7%
  Pain Composite Responder Rate, Sensitivity Analysis I (BOCF): 32.1%
  Pain Composite Responder Rate, Sensitivity Analysis II: 32.%
  Pain Composite Responder Rate, Sensitivity Analysis III: 32.1%
[2]; 100 mg, 3 month, N = 224
  Pain Composite Responder Rate, Primary Analysis (LOCF): 33.5%
[2]; 100 mg, 6 month
  Individual Component Responder Rate, PGIC (LOCF): 49.6%
  Individual Component Responder Rate, Pain (LOCF): 35.7%
  Pain Composite Responder Rate, Sensitivity Analysis I (BOCF): 26.8%
  Pain Composite Responder Rate, Sensitivity Analysis II: 27.2%
  Pain Composite Responder Rate, Sensitivity Analysis III: 29.5%
[2]; 100 mg, 6 month, N = 224
  Pain Composite Responder Rate, Primary Analysis (LOCF): 30.8%
[2]; 100 mg, treatment weeks 14-15, n = 135
  m, number of responders: 72
[2]; 100 mg, treatment weeks 26-27, n = 121
  m, number of responders: 60
[2]; 200 mg, 3 month
  Individual Component Responder Rate, PGIC (LOCF): 50.6%
  Individual Component Responder Rate, Pain (LOCF): 38.3%
  Pain Composite Responder Rate, Sensitivity Analysis I (BOCF): 32.4%
  Pain Composite Responder Rate, Sensitivity Analysis II: 32.7%
  Pain Composite Responder Rate, Sensitivity Analysis III: 32.4%
[2]; 200 mg, 3 month, N = 441
  Pain Composite Responder Rate, Primary Analysis (LOCF): 34.9%
[2]; 200 mg, 6 month
  Individual Component Responder Rate, PGIC (LOCF): 49.9%
  Individual Component Responder Rate, Pain (LOCF): 35.4%
  Pain Composite Responder Rate, Sensitivity Analysis I (BOCF): 27.0%
  Pain Composite Responder Rate, Sensitivity Analysis II: 28.6%
  Pain Composite Responder Rate, Sensitivity Analysis III: 29.9%
[2]; 200 mg, 6 month, N = 441
  Pain Composite Responder Rate, Primary Analysis (LOCF): 32.2%
[2]; 200 mg, treatment weeks 14-15, n = 260
  m, number of responders: 143
[2]; 200 mg, treatment weeks 26-27, n = 230
  m, number of responders: 119
[2]; continued daily administration for at least three months
  long-term relief from fibromyalgia and its symptoms: provides long-term (at least three months) relief from fibromyalgia and its symptoms
[2]; milnacipran 100 mg/day BID, 3 months (treatment weeks 14-15)
  percentage of responders (greater than 30% reduction in pain from baseline and improvement on the PGIC): 53.33% and 53.3%
[2]; milnacipran 100 mg/day BID, 3 months (treatment weeks 14-15), listed as Milnacipran
  percentage of responders (greater than 30% reduction in pain from baseline and improvement on the PGIC): 53.33%
[2]; milnacipran 100 mg/day BID, 6 months (treatment weeks 26-27)
  percentage of responders (greater than 30% reduction in pain from baseline and improvement on the PGIC): 49.59% and 49.6%
[2]; milnacipran 100 mg/day BID, 6 months (treatment weeks 26-27), listed as Milnacipran
  percentage of responders (greater than 30% reduction in pain from baseline and improvement on the PGIC): 49.59%
[2]; milnacipran 200 mg/day BID, 3 months (treatment weeks 14-15)
  percentage of responders (greater than 30% reduction in pain from baseline and improvement on the PGIC): 55.0%
[2]; milnacipran 200 mg/day BID, 3 months (treatment weeks 14-15), listed as Milnacipran
  percentage of responders (greater than 30% reduction in pain from baseline and improvement on the PGIC): 55.00%
[2]; milnacipran 200 mg/day BID, 6 months (treatment weeks 26-27)
  percentage of responders (greater than 30% reduction in pain from baseline and improvement on the PGIC): 51.74% and 51.7%
[2]; milnacipran 200 mg/day BID, 6 months (treatment weeks 26-27), listed as Milnacipran
  percentage of responders (greater than 30% reduction in pain from baseline and improvement on the PGIC): 51.74%
[3]; Phase II study
  deaths or serious adverse events associated with treatment: no deaths or serious adverse events
[3]; Phase II trial
  acute (short-term) efficacy on the symptom of pain in FMS: effective acute (short-term) therapy for the symptom of pain in FMS
[3]; [5]
  completers reporting an improvement in their overall status on the PGIC: over 70%
  completers reporting worsening on the PGIC: 10%
[3]; milnacipran-treated patients
  patients with elevation in hepatic enzymes reported as adverse event: 2%
[3]; twice-daily dosing compared with QD
  efficacy of BID versus QD dosing in treating pain: more effective in treating pain than QD dosing
[3]; twice-daily vs once-daily dosing, up to 200 mg/day
  efficacy of BID versus QD dosing on fatigue, mood, global wellness, and function: approximately equally effective

## COc1ccc(C(CN(C)C)C2(O)CCCCC2)cc1 (centres unmarked) [venlafaxine]
[4]; of 11 completing patients
  patients with insomnia requiring adjunctive medical therapy: 3 patients
[4]; of the 11 patients that completed the study
  patients with a positive response (50% or greater improvement in two different measurements of overall pain): 6 patients
